Assay results from US11524940B1, “Inhibitors of cysteine proteases and methods of use thereof” (priority 2020, dated 2022).

biological target: 229E Mpro (Human coronavirus 229E (HCoV-229E), UniProt P0C6X1); experiment: 229E Mpro activity; assay type: biochemical; conditions: 229E Mpro EC50
Sequence (P0C6X1 2966-3267 limits assumed): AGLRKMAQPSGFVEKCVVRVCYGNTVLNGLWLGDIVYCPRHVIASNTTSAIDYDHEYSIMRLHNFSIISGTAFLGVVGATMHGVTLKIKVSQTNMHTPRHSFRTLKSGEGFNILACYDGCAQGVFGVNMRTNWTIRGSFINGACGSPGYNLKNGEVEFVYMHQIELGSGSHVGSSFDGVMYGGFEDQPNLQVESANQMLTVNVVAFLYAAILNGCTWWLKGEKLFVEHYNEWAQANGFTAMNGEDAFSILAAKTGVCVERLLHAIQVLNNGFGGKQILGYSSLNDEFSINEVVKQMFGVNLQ
Method: Compounds are assayed using standard methods to assess compound activity and IC50. […] The assay buffer contains 20 mM of Tris-HCl (pH 7.3), 100 mM of NaCl, 1 mM of EDTA, 5mM of TCEP and 0.1% BSA.

Q: Which EC50 does the source give for `COc1cccc2[nH]c(C(=O)N[C@H](CC(C)C)C(=O)N[C@@H](CC3CCNC3=O)C(=O)CO)cc12` (stereo partly drawn) [Compound 740, N-[(1R)-1-[[(1S)-3-hydroxy-2-oxo-1-[[(3S)-2-oxopyrrolidin-3-yl]methyl]propyl]carbamoyl]-3-methyl-butyl]-4-methoxy-1H-indole-2-carboxamide] here?
A: The EC50 was 10000 to 30000 nM.

same assay, conditions: read-out: 229E Mpro EC50

Q: With `COc1cc(Cl)c2[nH]c(C(=O)N[C@@H](CC3CC3)C(=O)N[C@H](C#N)C[C@@H]3CCNC3=O)cc2c1` [Compound 695, 7-chloro-N-[(1S)-2-[[(1S)-1-cyano-2-[(3S)-2-oxopyrrolidin-3-yl]ethyl]amino]-1-(cyclopropylmethyl)-2-oxo-ethyl]-5-methoxy-1H-indole-2-carboxamide] as the compound, how does the EC50 read?
A: The EC50 was under 2000 nM.

Q: How did the EC50 turn out when `N#C[C@H](C[C@@H]1CCCNC1=O)NC(=O)[C@H](CC1CC1)NC(=O)c1cc2ccc(Cl)c(Cl)c2[nH]1` [Compound 727, 6,7-dichloro-N-[(1S)-2-[[(1S)-1-cyano-2-[(3S)-2-oxo-3-piperidyl]ethyl]amino]-1-(cyclopropylmethyl)-2-oxo-ethyl]-1H-indole-2-carboxamide] was run?
A: The EC50 was under 2000 nM.

Q: For `COc1cccc2[nH]c(C(=O)N[C@@H](CC(C)C)C(=O)N[C@@H](C[C@@H]3CCNC3=O)C(=O)CO)cc12` [Compound 741, N-[(1S)-1-[[(1S)-3-hydroxy-2-oxo-1-[[(3S)-2-oxopyrrolidin-3-yl]methyl]propyl]carbamoyl]-3-methyl-butyl]-4-methoxy-1H-indole-2-carboxamide], which EC50 is on record?
A: The EC50 was under 2000 nM.

Q: `CC(C)(C)C[C@H](NC(=O)c1cc2c(Cl)cccc2[nH]1)C(=O)N[C@H](C#N)C[C@@H]1CCCNC1=O` [Compound 793, 4-chloro-N-[(1S)-1-[[(1S)-1-cyano-2-[(3S)-2-oxo-3-piperidyl]ethyl]carbamoyl]-3,3-dimethyl-butyl]-1H-indole-2-carboxamide] was tested. Which EC50 did it give?
A: Its EC50 is under 2000 nM.

Q: For `CC(C)(C)C[C@H](NC(=O)c1cc2c(Cl)cc(Cl)cc2[nH]1)C(=O)N[C@H](C#N)C[C@@H]1CCCNC1=O` [Compound 795, 4,6-dichloro-N-((S)-1-(((S)-1-cyano-2-((S)-2-oxopiperidin-3-yl)ethyl)amino)-4,4-dimethyl-1-oxopentan-2-yl)-1H-indole-2-carboxamide], which EC50 is on record?
A: The EC50 was under 2000 nM.

Q: `COc1ccc2[nH]c(C(=O)N[C@@H](CC(C)(C)C)C(=O)N[C@H](C#N)C[C@@H]3CCCNC3=O)cc2c1Cl` [Compound 808, 4-chloro-N-[(1S)-1-[[(1S)-1-cyano-2-[(3S)-2-oxo-3-piperidyl]ethyl]carbamoyl]-3,3-dimethyl-butyl]-5-methoxy-1H-indole-2-carboxamide] was tested. Which EC50 did it give?
A: Its EC50 is under 2000 nM.

Q: Which EC50 does the source give for `COc1cc(Cl)c2[nH]c(C(=O)N[C@@H](CC(C)(C)C)C(=O)N[C@H](C#N)C[C@@H]3CCCNC3=O)cc2c1` [Compound 810, 7-chloro-N-[(1S)-1-[[(1S)-1-cyano-2-[(3S)-2-oxo-3-piperidyl]ethyl]carbamoyl]-3,3-dimethyl-butyl]-5-methoxy-1H-indole-2-carboxamide] here?
A: The EC50 was under 2000 nM.

Q: For `N#C[C@H](C[C@@H]1CCCNC1=O)NC(=O)[C@H](CC1CC1)NC(=O)c1cc2c(Cl)cccc2[nH]1` [Compound 812, 4-chloro-N-[(1S)-2-[[(1S)-1-cyano-2-[(3S)-2-oxo-3-piperidyl]ethyl]amino]-1-(cyclopropylmethyl)-2-oxo-ethyl]-1H-indole-2-carboxamide], which EC50 is on record?
A: Its EC50 is under 2000 nM.

Q: How did the EC50 turn out when `CC(C)(C)C[C@H](NC(=O)c1cc2c(F)cccc2[nH]1)C(=O)N[C@H](C#N)C[C@@H]1CCCNC1=O` [Compound 816] was run?
A: The EC50 was over 30000 nM.

Q: Which EC50 does the source give for `COc1ccc(F)c2[nH]c(C(=O)N[C@@H](CC3CC3)C(=O)N[C@H](C#N)C[C@@H]3CCCNC3=O)cc12` [Compound 820, N-((S)-1-(((S)-1-cyano-2-((S)-2-oxopiperidin-3-yl)ethyl)amino)-3-cyclopropyl-1-oxopropan-2-yl)-7-fluoro-4-methoxy-1H-indole-2-carboxamide] here?
A: Its EC50 is under 2000 nM.
